From patent US12730111B2, “Systems, methods, and compositions to identify new protein targets of a chemical compound or its derivatives” (priority 2019, dated 2026)
One block for each compound: values may come before it.

Experiments:
[1] = test system: protein asymmetric dimethylarginine (ADMA) in HeLa cells; test: Protein ADMA levels in cultured HeLa cells (immunoblot); assay type: cell-based; details: for levels of protein ADMA in cell culture: 50 μM, short-term treatment
Description: Each group contained the same volume of DMSO and ethanol. After wash with TBS for three times, the cells were lysed with 900 μL RIPA lysis buffer and centrifuged to pellet down the debris. The supernatant was then transferred to a new tube and mixed with equal volume of 2×SDS sample buffer. Ten μL sample solution was for electrophoresis and immunoblotting. The signal of anti-GAPDH was used to adjust the amount of protein loading.
Since Bay 11-7082 inhibited PRMT1 activity in an in vitro assay, we then tested the inhibitory activity of this compound in cultured HeLa cells. The levels of ADMA are regulated by both methylation and demethylation. […] Some proteins of ADMA persisted several days in the absence of PRMT1. […] We also used histone H4R3 asymmetric dimethylation antibody as one kind of pan ADMA antibody (right panel, Supplementary FIG. 5). However, we noticed that the ADMA signals of one or two proteins increased in this experiment possibly due to the compensation activity caused by other PRMT family proteins (39) or disturbance of cell cycle progression affected by other target proteins of Bay 11-7082 (40). It is of interest to note that phenylsulfonyl structure present in Bay 11-7082 is also found in a PRMT1 inhibitor, C-7280948 (41), indicating the Bay 11-7082 could be a good lead compound for developing PRMT1 inhibitors. […] We included another Bay 11-7082 analog, Bay 11-7085 for comparison (42, 43).

[2] = target: T1, Recombinant glutathione reductase (Homo sapiens, UniProt P00390); test: In vitro enzyme activity of glutathione reductase; assay type: biochemical
T1 construct: purchased BioVision
T1 sequence (P00390 44-522): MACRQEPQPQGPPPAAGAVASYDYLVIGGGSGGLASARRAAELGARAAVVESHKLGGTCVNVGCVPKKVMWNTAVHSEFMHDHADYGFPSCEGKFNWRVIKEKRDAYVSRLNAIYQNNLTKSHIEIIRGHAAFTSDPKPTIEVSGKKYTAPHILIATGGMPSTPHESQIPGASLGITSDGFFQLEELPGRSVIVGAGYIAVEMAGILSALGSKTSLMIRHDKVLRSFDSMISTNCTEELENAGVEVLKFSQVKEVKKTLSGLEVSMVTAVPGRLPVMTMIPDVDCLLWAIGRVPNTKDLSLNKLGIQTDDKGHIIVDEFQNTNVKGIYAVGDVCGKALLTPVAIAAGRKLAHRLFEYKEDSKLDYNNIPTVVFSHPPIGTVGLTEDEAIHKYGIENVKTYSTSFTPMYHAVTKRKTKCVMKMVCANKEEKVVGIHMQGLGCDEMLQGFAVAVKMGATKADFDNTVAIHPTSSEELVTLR
Description: Recombinant glutathione reductase was first treated with NADPH and 10 or 50 μM PVS, PVSN or Bay 11-7082 for 1 h at room temperature. In the control group, recombinant glutathione reductase was treated with NADPH and the same volume of DMSO used in the treatment of drugs in the assay buffer. Following the addition of oxidized glutathione, the decrease in absorbance at A340 was monitored over 10 min. Results were presented as mean of three independent experiments plus and minus standard deviation.
The assay was carried out according to the protocol provided by BioVision Inc. (Catalog number K761-200). Recombinant glutathione reductase was first treated with NADPH and 10 μM or 50 μM PVS, PVSN or Bay11-7082 for 30 min at room temperature. In the control group, recombinant glutathione reductase was treated with NADPH and the same volume of DMSO used in the treatment of drugs in the assay buffer. Following the addition of oxidized glutathione, the decrease in absorbance at A340 was monitored over 10 min.
Based on the proteomic results, we first examined whether PVS, PVSN and Bay 11-7082 affected the activity of glutathione reductase (FIG. 5). All compounds were ineffective in inhibiting glutathione reductase at 10 μM. However, PVSN and Bay 11-7082 at 50 μM inhibited the activity of glutathione reductase by 61% and 74%, respectively. […]

[3] = target: T2, recombinant PRMT1 (Homo sapiens, UniProt Q99873); test: In vitro PRMT1 activity assay (histone H4 methylation, immunoblot); assay type: biochemical; details: for concentration that caused significant inhibition of methylation of histone H4: recombinant PRMT1, histone H4, S-adenosylmethionine; for IC50: three-point curve fit (5, 10, 100 μM), an estimation, read-out: IC50 (PRMT1, histone H4 as substrate)
T2 construct: purchased BPS Bioscience
T2 sequence (Q99873 whole entry): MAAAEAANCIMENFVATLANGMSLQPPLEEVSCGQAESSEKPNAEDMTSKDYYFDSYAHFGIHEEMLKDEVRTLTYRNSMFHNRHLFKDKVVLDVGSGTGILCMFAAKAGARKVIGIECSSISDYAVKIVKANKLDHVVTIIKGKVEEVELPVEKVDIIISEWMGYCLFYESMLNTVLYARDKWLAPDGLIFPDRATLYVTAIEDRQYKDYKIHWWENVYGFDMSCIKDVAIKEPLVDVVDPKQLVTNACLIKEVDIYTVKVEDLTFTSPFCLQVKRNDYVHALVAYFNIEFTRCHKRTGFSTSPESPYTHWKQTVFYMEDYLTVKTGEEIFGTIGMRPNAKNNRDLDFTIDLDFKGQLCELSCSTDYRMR
Description: Three-point IC50 curves may provide an estimation, but certainly not an accurate calculation (data is not shown).

[4] = test system: PTPs in HeLa cells; test: Phosphotyrosine levels in HeLa cells (PTP inhibition, immunoblot); assay type: cell-based; details: 10 and 100 μM for 5 min
Description: FIG. 4 describes use of anti-PVS in recognition of PVSN and Bay 11-7082 adducts.
We next examined whether anti-PVS antiserum can be used in detection of target proteins probed by PVS analogs such as PVSN and Bay 11-7082. Treatment of PVSN and Bay 11-7082 at concentrations of 10 and 100 μM for 5 min increased the levels of phosphotyrosine modification in HeLa cells, especially Bay 11-7082 at 100 μM (FIG. 4) confirming their effects in PTP inhibition. PVSN-tagged proteins were abundantly recognized by anti-PVS antiserum (FIG. 5A), but only few Bay 11-7082-tagged proteins were detected by the anti-PVS antiserum (FIG. 5B). Therefore, anti-PVS antiserum can be readily used in the detection of proteins modified by PVS and PVSN.

[5] = test system: PVS tagging of cysteine thiol groups of cellular proteins in HeLa cells; test: Competition of PVS tagging in HeLa cells or lysate (anti-PVS immunoblot); assay type: cell-based
Description: HeLa cells were treated with 10 μM to 1 mM PVS in PBS for 1 h or with 0.1-2 mM PVD in PBS for 30 min. In the case of PVS and PVD combined treatment, HeLa cells were pretreated with PVD for 30 min and then treated with PVS in PBS for 1 h.
Based on the observations that PVS and PVSN were PTP covalent inhibitors (22), we attempted to develop an antiserum against PVS and use the antiserum in the identification of PVS-tagged proteins through immunoblotting and immunoprecipitation. First, we confirmed the inhibitory activity of PVS on PTPs and tested the efficacy of our antiserum against PVS. […] Higher concentrations of PVS elicited higher levels of PVS modification, but with the same pattern. […] Specificity of the anti-PVS was further tested by the combined treatment of ethyl vinyl sulfone (EVS) and PVS. HeLa cells were pretreated with 10 μM to 1 mM EVS in PBS for 30 min and then treated with 100 μM PVS in PBS for 1 h.
Pervanadate is an irreversible PTP inhibitor by oxidizing the active-site cysteine thiol of PTPs (24). If both PVS and pervanadate target the same thiol group, pretreatment of pervanadate would hinder the tagging of PVS. […] Next, we tested the competition of BVT 948 and NSC 95397 on the tagging of PVS. BVT 948 (25) and NSC 95397 (26) are PTP and dual specificity phosphatase inhibitors, respectively. Treatment of both drugs elicited increased amounts of tyrosine phosphorylation, albeit with different sensitivity and pattern.
HeLa cells were cultured to about 90% confluence on a 10-cm dish in DMEM with 10% FBS (5×10^6~1×10^7 cells). HeLa cells were lysed by repeated pipetting with 900 μL 2% Triton X-100 in 20 mM Tris-HCl, pH 8.0. The lysate was centrifuged at 12,000×g for 10 min and the supernatant was aliquoted (200 μL) and treated with PVS, PVSN, or Bay 11-7082 of various concentrations at room temperature for 5 to 60 min. The stocks of 1000×PVS, 1000×PVSN, and 1000× Bay 11-7082 were prepared in DMSO. The reaction was stopped by adding 1,4-dithioerythreitol to a final concentration of 10 mM. The reaction solution was then mixed with equal volume of 2× SDS sample buffer. Ten μL sample solution was used for SDS gel electrophoresis and immunoblotting. The signal of GAPDH was used to adjust the amount of protein loading.

[6] = test system: PC-9 cells; test: Afatinib labeling of proteins in PC-9 cells (anti-afatinib immunoblot); details: 1 h
Description: The control groups were treated with the same volume of DMSO.

[7] = test system: recombinant RRM1 or RRM2; test: Competition of afatinib labeling of recombinant RNR subunits; details: pretreatment 2.5 mM, then 10 μM afatinib

Compound: O=C(Nc1ccc2c(O)cc(S(=O)(=O)O)cc2c1)Nc1ccc2c(O)cc(S(=O)(=O)O)cc2c1 [AMI-1]
- levels of protein ADMA in cell culture [1]: little effect

Compound: Cc1ccc(S(=O)(=O)/C=C/C#N)cc1 [Bay 11-7082]
- inhibited the activity of glutathione reductase by ([2]; at 50 μM): 74%
- concentration that caused significant inhibition of methylation of histone H4 [3]: 2.5 µM
- IC50 [3]: 10.7 µM
- levels in ADMA of 25 and 35 kDa ([1]; 3 h): led to decline
- levels of phosphotyrosine modification [4]: increased

Compound: C=CS(=O)(=O)CC [EVS, ethyl vinyl sulfone]
- PVS modification ([5]; HeLa cells pretreated at 100 μM and 1 mM for 30 min, then 100 μM PVS 1 h): significantly attenuated

Compound: O=C1C(SCCO)=C(SCCO)C(=O)c2ccccc21 [NSC 95397]
- blocking of PVS tagging, comparison ([5]; in vitro and in cellulo): blocked PVS tagging better than BVT 948

- concentration that caused significant inhibition of methylation of histone H4 [3]: 10 µM
- IC50 [3]: 23.3 µM
Compound: C=CS(=O)(=O)c1ccccc1 [PVS, Phenyl vinyl sulfone]
- levels of protein ADMA in cell culture [1]: did not change

- inhibition at 50 µM ([2]; read-out: inhibited the activity of glutathione reductase by): 61%
- concentration that caused significant inhibition of methylation of histone H4 [3]: 5 µM
- IC50 [3]: 10.4 µM
Compound: C=CS(=O)(=O)Oc1ccccc1 [PVSN, phenyl vinyl sulfonate]
- levels of protein ADMA in cell culture [1]: decreased the levels of protein ADMA slightly
- levels of phosphotyrosine modification [4]: increased

Compound: CN(C)C/C=C/C(=O)Nc1cc2c(Nc3ccc(F)c(Cl)c3)ncnc2cc1O[C@H]1CCOC1 [afatinib]
- concentration at which labeling signals were readily observed [6]: 1 µM

Compound: Nc1ccn([C@@H]2O[C@H](CO)[C@@H](O)C2(F)F)c(=O)n1 [gemcitabine]
- afatinib labeling [7]: almost completely blocked

Compound: pervanadate
- tagging of PVS ([5]; HeLa cell lysate, 1 mM together with 100 μM PVS): almost completely blocked
- tagging of PVS ([5]; HeLa cells pretreated with 1 mM for 30 min): completely blocked
